Data taken from patent publication US20220016060A1, “USE OF SODIUM 2-(3-PENTYLPHENYL)ACETATE IN THE TREATMENT OF ALSTRÖM SYNDROME” (LIMINAL BIOSCIENCES LIMITED, priority 2018, published 2022).
Several values for one entry are separate records, joined by “and”; a condition that tells them apart may be missing. Identical values can stand only once.

Key:
Format in all cases: in vivo, human
ALMS patients [1] = assay: Cardiac MRI of myocardial fibrosis (SAX T1); details: for Change from Baseline Basal SAX T1, Mean / Change from Baseline Basal SAX T1, Median / Change from Baseline Mid SAX T1, Mean / Change from Baseline Mid SAX T1, Median: 800 mg daily oral
Procedure: The study was a Phase 2, single-centre, single-arm, open-label study of sodium 2-(3-pentylphenyl)acetate administered at a total daily oral dose of 800 mg for up to 72 weeks in subjects with ALMS was undertaken. The initial duration of the study was 24 weeks, and subjects were offered to enrol into an extension phase of 36 or 48 weeks. The schedule of study procedures for the enrolment, intervention, and assessments for participants is outlined in FIG. 1. Sodium 2-(3-pentylphenyl)acetate was formulated in soft gelatine capsules containing 200 mg of Sodium 2-(3-pentylphenyl)acetate (amorphous powder) per capsule, polyethylene glycol 400, National Formulary (NF), hydrochloric acid (for pH adjustment), and water. The effect of sodium 2-(3-pentylphenyl)acetate on heart histology in ALMS patients was also assessed by measuring short-axis (plane) longitudinal relaxation time (SAX T1). A decrease in relaxation time reflects an improvement in heart histology, such as a decrease of myocardial fibrosis, which reduces the risk of cardiac failure.

ALMS patients [2] = assay: Urinary kidney toxicity biomarkers (MCP-1, KIM-1, clusterin, cystatin C, osteopontin); details: analyte/creatinine ratio in urine; 800 mg daily oral
Procedure: The study was a Phase 2, single-centre, single-arm, open-label study of sodium 2-(3-pentylphenyl)acetate administered at a total daily oral dose of 800 mg for up to 72 weeks in subjects with ALMS was undertaken. The initial duration of the study was 24 weeks, and subjects were offered to enrol into an extension phase of […]. The schedule of study procedures for the enrolment, intervention, and assessments for participants is outlined in FIG. 1. Sodium 2-(3-pentylphenyl)acetate was formulated in soft gelatine capsules containing 200 mg of Sodium 2-(3-pentylphenyl)acetate (amorphous powder) per capsule, polyethylene glycol 400, National Formulary (NF), hydrochloric acid (for pH adjustment), and water. […] The levels of these markers was assessed at baseline and after 24 weeks of treatment with sodium 2-(3-pentylphenyl)acetate in ALMS patients, and the results are reported in Table 15.

ALMS patients [3] = assay: Glycated hemoglobin (HbA1c); details: for Change from Baseline HbA1c, Mean / Change from Baseline HbA1c, Median / HbA1c: 800 mg daily oral; for HbA1c: individual subjects
Procedure: The study was a Phase 2, single-centre, single-arm, open-label study of sodium 2-(3-pentylphenyl)acetate administered at a total daily oral dose of 800 mg for up to 72 weeks in subjects with ALMS was undertaken. The initial duration of the study was 24 weeks, and subjects were offered to enrol into an extension phase of 36 or 48 weeks. The schedule of study procedures for the enrolment, intervention, and assessments for participants is outlined in FIG. 1. Sodium 2-(3-pentylphenyl)acetate was formulated in soft gelatine capsules containing 200 mg of Sodium 2-(3-pentylphenyl)acetate (amorphous powder) per capsule, polyethylene glycol 400, National Formulary (NF), hydrochloric acid (for pH adjustment), and water. Glycated hemoglobin (HbA1c) is measured primarily to determine the three-month average blood sugar level, and is used as a diagnostic test for diabetes mellitus and as an assessment test for glycemic control in people with diabetes. HbA1c was assessed in ALMS patients treated with sodium 2-(3-pentylphenyl)acetate. There was a statistically significant mean decrease of 0.53% (p=0.0144) in HbA1c from baseline after 12 weeks of treatment (Table 16).

ALMS patients [4] = assay: Fasting insulin; details: for Change from Baseline Fasting Insulin, Mean / Change from Baseline Fasting Insulin, Median: 800 mg daily oral; for decrease of fasting insulin from baseline: Subject 826-001-003
Procedure: The study was a Phase 2, single-centre, single-arm, open-label study of sodium 2-(3-pentylphenyl)acetate administered at a total daily oral dose of 800 mg for up to 72 weeks in subjects with ALMS was undertaken. The initial duration of the study was 24 weeks, and subjects were offered to enrol into an extension phase of 36 or 48 weeks. The schedule of study procedures for the enrolment, intervention, and assessments for participants is outlined in FIG. 1. Sodium 2-(3-pentylphenyl)acetate was formulated in soft gelatine capsules containing 200 mg of Sodium 2-(3-pentylphenyl)acetate (amorphous powder) per capsule, polyethylene glycol 400, National Formulary (NF), hydrochloric acid (for pH adjustment), and water.

[5] = Subject 826-001-001, 204-day break in treatment

CCCCCc1cccc(CC(=O)[O-])c1.[Na+] [sodium 2-(3-pentylphenyl)acetate]
Change from Baseline Basal SAX T1, Mean (ALMS patients [1]; EP Week 36 (Week 60), N=4): -84.75 ms
Change from Baseline Basal SAX T1, Median (ALMS patients [1]; EP Week 36 (Week 60), N=4): -80.50 ms
Change from Baseline Mid SAX T1, Mean (ALMS patients [1]; EP Week 36 (Week 60), N=4): -54.63 ms
Change from Baseline Mid SAX T1, Median (ALMS patients [1]; EP Week 36 (Week 60), N=4): -51.00 ms
Change from Baseline Basal SAX T1, Mean (ALMS patients [1]; Week 24, N=9): -10.67 ms
Change from Baseline Basal SAX T1, Median (ALMS patients [1]; Week 24, N=9): -1.50 ms
Change from Baseline Mid SAX T1, Mean (ALMS patients [1]; Week 24, N=9): -4.11 ms
Change from Baseline Mid SAX T1, Median (ALMS patients [1]; Week 24, N=9): 0.00 ms
mean decrease in Basal SAX T1 from baseline (ALMS patients [1]; after 60 weeks of treatment, p=0.0274): 84.75 ms
mean decrease in Mid SAX T1 from baseline (ALMS patients [1]; after 60 weeks of treatment, p=0.0349): 54.63 ms
Urinary Clusterin, Mean Fold Change from Baseline to Week 24 (ALMS patients [2]): 0.66
Urinary Clusterin, mean change from Baseline to Week 24 (%) (ALMS patients [2]): −34%
Urinary Cystatin C, Mean Fold Change from Baseline to Week 24 (ALMS patients [2]): 0.75
Urinary Cystatin C, mean change from Baseline to Week 24 (%) (ALMS patients [2]): −25%
Urinary KIM-1, Mean Fold Change from Baseline to Week 24 (ALMS patients [2]): 0.67
Urinary KIM-1, mean change from Baseline to Week 24 (%) (ALMS patients [2]): −33%
Urinary MCP-1, Mean Fold Change from Baseline to Week 24 (ALMS patients [2]): 0.85
Urinary MCP-1, mean change from Baseline to Week 24 (%) (ALMS patients [2]): −15%
Urinary Osteopontin, Mean Fold Change from Baseline to Week 24 (ALMS patients [2]): 0.82
Urinary Osteopontin, mean change from Baseline to Week 24 (%) (ALMS patients [2]): −18%
subjects in whom HbA1c decreased or did not change from baseline (ALMS patients [3]; 8/12 subjects): 66.7%
Change from Baseline HbA1c, Mean (ALMS patients [3]; EP Week 12 (Week 36), N=10): 0.24%
Change from Baseline HbA1c, Median (ALMS patients [3]; EP Week 12 (Week 36), N=10): 0.00%
Change from Baseline HbA1c, Mean (ALMS patients [3]; EP Week 24 (Week 48), N=10): −0.28%
Change from Baseline HbA1c, Median (ALMS patients [3]; EP Week 24 (Week 48), N=10): −0.30%
Change from Baseline HbA1c, Mean (ALMS patients [3]; EP Week 36 (Week 60), N=9): −0.18%
Change from Baseline HbA1c, Median (ALMS patients [3]; EP Week 36 (Week 60), N=9): −0.10%
Change from Baseline HbA1c, Mean (ALMS patients [3]; EP Week 48 (Week 72), N=3): 0.13%
Change from Baseline HbA1c, Median (ALMS patients [3]; EP Week 48 (Week 72), N=3): 0.10%
HbA1c increase above baseline by the last study visit (ALMS patients [3]; [5]): 1%
HbA1c reduction below baseline (ALMS patients [3]; Subjects 826-001-007, 826-001-009 and 826-001-014): 1%
Change from Baseline HbA1c, Mean (ALMS patients [3]; Week 12, N=12): −0.53%
Change from Baseline HbA1c, Median (ALMS patients [3]; Week 12, N=12): −0.55%
Change from Baseline HbA1c, Mean (ALMS patients [3]; Week 24, N=12): −0.24%
Change from Baseline HbA1c, Median (ALMS patients [3]; Week 24, N=12): −0.05%
mean decrease in HbA1c from baseline (ALMS patients [3]; after 12 weeks of treatment, p=0.0144): 0.53%
HbA1c (ALMS patients [3]; EP Week 12 (Week 36)): 12.7% and 5.1% and 5.4% (3×) and 7.5% and 7.3% and 6.4% and 6.2% and 12%
HbA1c (ALMS patients [3]; EP Week 24 (Week 48)): 10.6% (2×) and 4.9% and 4.7% and 5.7% and 6.8% and 5.4% and 6.5% and 6.3% and 6.7%
HbA1c (ALMS patients [3]; EP Week 36 (Week 60)): 11.2% and 5.1% and 5.0% and 7.5% and 5.4% and 6.8% (2×) and 6.4% and 9.1%
HbA1c (ALMS patients [3]; EP Week 48 (Week 72)): 11.1% and 5.0% and 4.9%
HbA1c (ALMS patients [3]; Week 12): 10.1% and 5.3% and 5.0% and 5.7% (2×) and 8.2% and 5.5% and 6.7% and 6.1% and 10.6% and 6.4% and 6.5%
HbA1c (ALMS patients [3]; Week 24): 11.1% and 5.4% (2×) and 4.8% and 5.6% and 9.1% and 7.0% and 6.2% and 10.0% and 6.6% and 8.6% and 6.1%
Change from Baseline Fasting Insulin, Mean (ALMS patients [4]; EP Week 12 (Week 36), N=10): -920.20 pmol/L
Change from Baseline Fasting Insulin, Median (ALMS patients [4]; EP Week 12 (Week 36), N=10): -53.50 pmol/L
Change from Baseline Fasting Insulin, Mean (ALMS patients [4]; EP Week 24 (Week 48), N=9): -1371.78 pmol/L
Change from Baseline Fasting Insulin, Median (ALMS patients [4]; EP Week 24 (Week 48), N=9): -24.00 pmol/L
Change from Baseline Fasting Insulin, Mean (ALMS patients [4]; EP Week 36 (Week 60), N=8): -1191.63 pmol/L
Change from Baseline Fasting Insulin, Median (ALMS patients [4]; EP Week 36 (Week 60), N=8): 7.00 pmol/L
Change from Baseline Fasting Insulin, Mean (ALMS patients [4]; EP Week 48 (Week 72), N=3): -3933.00 pmol/L
Change from Baseline Fasting Insulin, Median (ALMS patients [4]; EP Week 48 (Week 72), N=3): 193.00 pmol/L
increase in fasting insulin from baseline (ALMS patients [4]; [5]): 420 pmol/L
decrease of fasting insulin from baseline (ALMS patients [4]; after 24 weeks): ~30%
decrease of fasting insulin from baseline (ALMS patients [4]; after 72 weeks): > 96%
increase in fasting insulin from baseline (ALMS patients [4]; Subject 826-001-004, 30-day break in treatment): 298 pmol/L
increase in fasting insulin from baseline (ALMS patients [4]; Subject 826-001-007, 32-day break in treatment): 1970 pmol/L
increase in fasting insulin from baseline (ALMS patients [4]; Subject 826-001-013, 30-day break in treatment): 1160 pmol/L
Change from Baseline Fasting Insulin, Mean (ALMS patients [4]; Week 12, N=12): -18.92 pmol/L
Change from Baseline Fasting Insulin, Median (ALMS patients [4]; Week 12, N=12): 9.00 pmol/L
Change from Baseline Fasting Insulin, Mean (ALMS patients [4]; Week 24, N=12): -339.08 pmol/L
Change from Baseline Fasting Insulin, Median (ALMS patients [4]; Week 24, N=12): -86.00 pmol/L
Fasting Insulin (ALMS patients [4]; by-subject listing, ALMS subjects, EP Week 48 (Week 72)): 460 pmol/L and 600 pmol/L and 303 pmol/L
